According to ChEMBL document CHEMBL4346705, “(±)-trans-Dihydronarciclasine and (±)-trans-dihydrolycoricidine analogues modified in their ring A: Evaluation of their anticancer activity and a SAR study” (2019):

What was measured:
Type in all cases: functional
SF-268 = test: Antiproliferative activity against human SF268 cells assessed as cell viability at 10^-5 M incubated for 48 hrs by sulforhodamine B assay relative to control; details: SF-268, 48 h, read-out: Activity
CCRF-CEM = test: Antiproliferative activity against human CCRF-CEM cells assessed as cell viability at 10^-5 M incubated for 48 hrs by sulforhodamine B assay relative to control; details: read-out: Activity
BT-549 = test: Antiproliferative activity against human BT549 cells assessed as cell viability at 10^-5 M incubated for 48 hrs by sulforhodamine B assay relative to control; details: BT-549, 48 h, read-out: Activity
SK-MEL-2 = test: Antiproliferative activity against human SK-MEL-2 cells assessed as cell viability at 10^-5 M incubated for 48 hrs by sulforhodamine B assay relative to control; details: SK-MEL-2, 48 h, read-out: Activity
SW-620 = test: Antiproliferative activity against human SW620 cells assessed as cell viability at 10^-5 M incubated for 48 hrs by sulforhodamine B assay relative to control; details: SW-620, 48 h, read-out: Activity
CAKI-1 = test: Antiproliferative activity against human Caki1 cells assessed as cell viability at 10^-5 M incubated for 48 hrs by sulforhodamine B assay relative to control; details: CAKI-1, 48 h, read-out: Activity
HOP-92 = test: Antiproliferative activity against human HOP92 cells assessed as cell viability at 10^-5 M incubated for 48 hrs by sulforhodamine B assay relative to control; details: HOP-92, 48 h, read-out: Activity
U-251 = test: Antiproliferative activity against human U251 cells assessed as cell viability at 10^-5 M incubated for 48 hrs by sulforhodamine B assay relative to control; details: U-251, 48 h, read-out: Activity
MDA-MB-435 = test: Antiproliferative activity against human MDA-MB-435 cells assessed as cell viability at 10^-5 M incubated for 48 hrs by sulforhodamine B assay relative to control; details: MDA-MB-435, 48 h, read-out: Activity
SF-539 = test: Antiproliferative activity against human SF539 cells assessed as cell viability at 10^-5 M incubated for 48 hrs by sulforhodamine B assay relative to control; details: SF-539, 48 h, read-out: Activity
SNB-75 = test: Antiproliferative activity against human SNB75 cells assessed as cell viability at 10^-5 M incubated for 48 hrs by sulforhodamine B assay relative to control; details: SNB-75, 48 h, read-out: Activity
MCF7 = test: Antiproliferative activity against human MCF7 cells assessed as cell viability at 10^-5 M incubated for 48 hrs by sulforhodamine B assay relative to control; details: MCF7, 48 h, read-out: Activity
MDA-MB-231 = test: Antiproliferative activity against human MDA-MB-231 cells assessed as cell viability at 10^-5 M incubated for 48 hrs by sulforhodamine B assay relative to control; details: MDA-MB-231, 48 h, read-out: Activity
ACHN = test: Antiproliferative activity against human ACHN cells assessed as cell viability at 10^-5 M incubated for 48 hrs by sulforhodamine B assay relative to control; details: read-out: Activity
TK-10 = test: Antiproliferative activity against human TK10 cells assessed as cell viability at 10^-5 M incubated for 48 hrs by sulforhodamine B assay relative to control; details: TK-10, 48 h, read-out: Activity
HOP-62 = test: Antiproliferative activity against human HOP62 cells assessed as cell viability at 10^-5 M incubated for 48 hrs by sulforhodamine B assay relative to control; details: HOP-62, 48 h, read-out: Activity
HL-60(TB) = test: Antiproliferative activity against human HL-60(TB) cells assessed as cell viability at 10^-5 M incubated for 48 hrs by sulforhodamine B assay relative to control; details: HL-60, 48 h, read-out: Activity
SNB-19 = test: Antiproliferative activity against human SNB19 cells assessed as cell viability at 10^-5 M incubated for 48 hrs by sulforhodamine B assay relative to control; details: SNB-19, 48 h, read-out: Activity
A498 = test: Antiproliferative activity against human A498 cells assessed as cell viability at 10^-5 M incubated for 48 hrs by sulforhodamine B assay relative to control; details: A498, 48 h, read-out: Activity
HT-29 = test: Antiproliferative activity against human HT-29 cells assessed as cell viability at 10^-5 M incubated for 48 hrs by sulforhodamine B assay relative to control; details: HT-29, 48 h, read-out: Activity
RXF 393 = test: Antiproliferative activity against human RXF393 cells assessed as cell viability at 10^-5 M incubated for 48 hrs by sulforhodamine B assay relative to control; details: RXF 393, 48 h, read-out: Activity
MOLT-4 = test: Antiproliferative activity against human MOLT4 cells assessed as cell viability at 10^-5 M incubated for 48 hrs by sulforhodamine B assay relative to control; details: MOLT-4, 48 h, read-out: Activity
K562 = test: Antiproliferative activity against human K562 cells assessed as cell viability at 10^-5 M incubated for 48 hrs by sulforhodamine B assay relative to control; details: K562, 48 h, read-out: Activity
UACC-62 = test: Antiproliferative activity against human UACC62 cells assessed as cell viability at 10^-5 M incubated for 48 hrs by sulforhodamine B assay relative to control; details: UACC-62, 48 h, read-out: Activity
OVCAR-4 = test: Antiproliferative activity against human OVCAR4 cells assessed as cell viability at 10^-5 M incubated for 48 hrs by sulforhodamine B assay relative to control; details: OVCAR-4, 48 h, read-out: Activity
NCI-H460 = test: Antiproliferative activity against human NCI-H460 cells assessed as cell viability at 10^-5 M incubated for 48 hrs by sulforhodamine B assay relative to control; details: NCI-H460, 48 h, read-out: Activity
786-0 = test: Antiproliferative activity against human 786-0 cells assessed as cell viability at 10^-5 M incubated for 48 hrs by sulforhodamine B assay relative to control; details: 786-0, 48 h, read-out: Activity
DU-145 = test: Antiproliferative activity against human DU145 cells assessed as cell viability at 10^-5 M incubated for 48 hrs by sulforhodamine B assay relative to control; details: DU-145, 48 h, read-out: Activity
HCT-15 = test: Antiproliferative activity against human HCT15 cells assessed as cell viability at 10^-5 M incubated for 48 hrs by sulforhodamine B assay relative to control; details: HCT-15, 48 h, read-out: Activity
Hs-578T = test: Antiproliferative activity against human Hs 578T cells assessed as cell viability at 10^-5 M incubated for 48 hrs by sulforhodamine B assay relative to control; details: read-out: Activity
OVCAR-8 = test: Antiproliferative activity against human OVCAR8 cells assessed as cell viability at 10^-5 M incubated for 48 hrs by sulforhodamine B assay relative to control; details: OVCAR-8, 48 h, read-out: Activity
Malme-3M = test: Antiproliferative activity against human MALME-3M cells assessed as cell viability at 10^-5 M incubated for 48 hrs by sulforhodamine B assay relative to control; details: read-out: Activity

Row | Compound | viability at 10 µM (SF-268) [%] | viability at 10 µM (CCRF-CEM) [%] | viability at 10 µM (BT-549) [%] | viability at 10 µM (SK-MEL-2) [%] | viability at 10 µM (SW-620) [%] | viability at 10 µM (CAKI-1) [%] | viability at 10 µM (HOP-92) [%] | viability at 10 µM (U-251) [%] | viability at 10 µM (MDA-MB-435) [%] | viability at 10 µM (SF-539) [%] | viability at 10 µM (SNB-75) [%] | viability at 10 µM (MCF7) [%] | viability at 10 µM (MDA-MB-231) [%] | viability at 10 µM (ACHN) [%] | viability at 10 µM (TK-10) [%] | viability at 10 µM (HOP-62) [%] | viability at 10 µM (HL-60(TB)) [%] | viability at 10 µM (SNB-19) [%] | viability at 10 µM (A498) [%] | viability at 10 µM (HT-29) [%] | further results
1 | O=C1NC2C(CC(O)C(O)C2O)c2cc3c(cc21)OCCO3 (racemic) | 101 | 106 | 98.3 | 109 | 104 | 94.4 | 101 | 101 | 107 | 101 | 98.3 | 98.6 | 109 | 105 | 103 | 103 | 101 | 102 | 108 | 105 | viability at 10 µM (RXF 393): 116%; viability at 10 µM (MOLT-4): 103%; viability at 10 µM (K562): 104%; viability at 10 µM (UACC-62): 103%; viability at 10 µM (OVCAR-4): 107%; viability at 10 µM (NCI-H460): 107%; viability at 10 µM (786-0): 102%; viability at 10 µM (DU-145): 114%; viability at 10 µM (HCT-15): 103%; viability at 10 µM (Hs-578T): 96.9%; viability at 10 µM (OVCAR-8): 107%; viability at 10 µM (Malme-3M): 105%
2 | CCOc1cc2c(c(O)c1OCC)C(=O)NC1C2CC(O)C(O)C1O (racemic) | 96.4 | 103 | 100 | 109 | 112 | 95.7 | 78.5 | 98.4 | 109 | 102 | 93.4 | 90.9 | 103 | 106 | 99.1 | 101 | 102 | 96 | 98.7 | 99.7 | viability at 10 µM (RXF 393): 104%; viability at 10 µM (MOLT-4): 103%; viability at 10 µM (K562): 93.8%; viability at 10 µM (UACC-62): 93%; viability at 10 µM (OVCAR-4): 103%; viability at 10 µM (NCI-H460): 113%; viability at 10 µM (786-0): 94.1%; viability at 10 µM (DU-145): 105%; viability at 10 µM (HCT-15): 99%; viability at 10 µM (Hs-578T): 89.9%; viability at 10 µM (OVCAR-8): 97%; viability at 10 µM (Malme-3M): 102%
3 | O=C1NC2C(CC(O)C(O)C2O)c2cc3c(c(O)c21)OCCO3 (racemic) | -0.71 | -6.07 | -17.5 | -48.7 | 4.85 | 4.9 | -20.1 | -14.9 | 1.45 | -24.1 | -4.29 | -13.3 | -24.1 | -14.5 | -11.9 | -26.5 | -18.8 | -10.4 | -29.7 | -14.5 | viability at 10 µM (RXF 393): -24.2%; viability at 10 µM (MOLT-4): -0.8%; viability at 10 µM (K562): 1.56%; viability at 10 µM (UACC-62): -13.3%; viability at 10 µM (OVCAR-4): -8.78%; viability at 10 µM (NCI-H460): 1.26%; viability at 10 µM (786-0): -1.5%; viability at 10 µM (DU-145): -2.39%; viability at 10 µM (HCT-15): -11.9%; viability at 10 µM (Hs-578T): -9.44%; viability at 10 µM (OVCAR-8): -13.8%; viability at 10 µM (Malme-3M): -23.8%
4 | CCCOc1cc2c(cc1OCC)C1CC(O)C(O)C(O)C1NC2=O (racemic) | 97.6 | 107 | 97.1 | 105 | 101 | 95.9 | 110 | 98.5 | 105 | 99.2 | 95.3 | 99 | 118 | 107 | 99 | 104 | 101 | 105 | 115 | 107 | viability at 10 µM (RXF 393): 109%; viability at 10 µM (MOLT-4): 104%; viability at 10 µM (K562): 105%; viability at 10 µM (UACC-62): 117%; viability at 10 µM (OVCAR-4): 107%; viability at 10 µM (NCI-H460): 107%; viability at 10 µM (786-0): 101%; viability at 10 µM (DU-145): 110%; viability at 10 µM (HCT-15): 112%; viability at 10 µM (Hs-578T): 96.9%; viability at 10 µM (OVCAR-8): 104%; viability at 10 µM (Malme-3M): 108%
5 | CCOc1cc2c(cc1OCC)C1CC(O)C(O)C(O)C1NC2=O (racemic) | 97.9 | 102 | 101 | 100 | 99.4 | 87 | 102 | 106 | 109 | 98 | 98.9 | 94.4 | 103 | 101 | 118 | 99.2 | 94.5 | 105 | 111 | 106 | viability at 10 µM (RXF 393): 105%; viability at 10 µM (MOLT-4): 96.5%; viability at 10 µM (K562): 88.4%; viability at 10 µM (UACC-62): 96.1%; viability at 10 µM (OVCAR-4): 107%; viability at 10 µM (NCI-H460): 111%; viability at 10 µM (786-0): 98.9%; viability at 10 µM (DU-145): 106%; viability at 10 µM (HCT-15): 101%; viability at 10 µM (Hs-578T): 99.6%; viability at 10 µM (OVCAR-8): 97.9%; viability at 10 µM (Malme-3M): 102%
